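Protocol summary: plate cells (96-well), add compound at 5 concentrations, incubate 48 h, interpolate endpoints linearly. GI50 marks 50% less growth. TGI is the concentration that stops growth completely.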
Tests used:
Test in all cases: NCI anticancer screen, dose series, 48 h
MALME-3M melanoma = test system: MALME-3M melanoma
A498 renal = test system: A498 renal
SR leukemia = test system: SR leukemia
UACC-257 melanoma = test system: UACC-257 melanoma
SF-268 CNS = test system: SF-268 CNS
OVCAR-3 ovarian = test system: OVCAR-3 ovarian
HOP-62 NSCLC = test system: HOP-62 NSCLC
HT29 colon = test system: HT29 colon
K-562 leukemia = test system: K-562 leukemia
A549 NSCLC = test system: A549 NSCLC
MDA-MB-231 breast = test system: MDA-MB-231 breast
KM12 colon = test system: KM12 colon
LOX IMVI melanoma = test system: LOX IMVI melanoma
SNB-19 CNS = test system: SNB-19 CNS
U251 CNS = test system: U251 CNS
NCI-H460 lung = test system: NCI-H460 lung
CCRF-CEM leukemia = test system: CCRF-CEM leukemia
NCI-H23 lung = test system: NCI-H23 lung
BT-549 breast = test system: BT-549 breast
OVCAR-8 ovarian = test system: OVCAR-8 ovarian
NCI-H226 lung = test system: NCI-H226 lung
UACC-62 melanoma = test system: UACC-62 melanoma
SF-539 CNS = test system: SF-539 CNS
PC-3 prostate = test system: PC-3 prostate
OVCAR-4 ovarian = test system: OVCAR-4 ovarian
MDA-MB-435 = test system: MDA-MB-435
DU-145 prostate = test system: DU-145 prostate
SK-MEL-5 melanoma = test system: SK-MEL-5 melanoma
HOP-92 NSCLC = test system: HOP-92 NSCLC
SK-OV-3 ovarian = test system: SK-OV-3 ovarian
M14 melanoma = test system: M14 melanoma
IGROV1 ovarian = test system: IGROV1 ovarian
HCT-116 colon = test system: HCT-116 colon
ACHN renal = test system: ACHN renal
MCF7 breast = test system: MCF7 breast
NCI/ADR-RES ovarian = test system: NCI/ADR-RES ovarian
SN12C renal = test system: SN12C renal
OVCAR-5 ovarian = test system: OVCAR-5 ovarian
HS 578T breast = test system: HS 578T breast
HCT-15 colon = test system: HCT-15 colon
CAKI-1 renal = test system: CAKI-1 renal
TK-10 renal = test system: TK-10 renal
RXF 393 renal = test system: RXF 393 renal
HCC-2998 colon = test system: HCC-2998 colon
SK-MEL-2 melanoma = test system: SK-MEL-2 melanoma
UO-31 renal = test system: UO-31 renal
T-47D breast = test system: T-47D breast
SNB-75 CNS = test system: SNB-75 CNS
SF-295 CNS = test system: SF-295 CNS
SW-620 colon = test system: SW-620 colon
MOLT-4 leukemia = test system: MOLT-4 leukemia
NCI-H522 lung = test system: NCI-H522 lung
RPMI-8226 leukemia = test system: RPMI-8226 leukemia
786-0 renal = test system: 786-0 renal
SK-MEL-28 melanoma = test system: SK-MEL-28 melanoma
COLO 205 colon = test system: COLO 205 colon
HL-60(TB) leukemia = test system: HL-60(TB) leukemia

Question: What does the source list for `Cn1c(=O)c(Cc2ccccc2F)cc2cnc(NC3CCOCC3)nc21`?
Answer: GI50 (MALME-3M melanoma): > 25 µM; TGI (MALME-3M melanoma): > 25 µM; GI50 (A498 renal): > 25 µM; TGI (A498 renal): > 25 µM; GI50 (SR leukemia): > 25 µM; TGI (SR leukemia): > 25 µM; GI50 (UACC-257 melanoma): > 25 µM; TGI (UACC-257 melanoma): > 25 µM; GI50 (SF-268 CNS): > 25 µM; TGI (SF-268 CNS): > 25 µM; GI50 (OVCAR-3 ovarian): > 25 µM; TGI (OVCAR-3 ovarian): > 25 µM; GI50 (HOP-62 NSCLC): > 25 µM; TGI (HOP-62 NSCLC): > 25 µM; GI50 (HT29 colon): > 25 µM; TGI (HT29 colon): > 25 µM; GI50 (K-562 leukemia): > 25 µM; TGI (K-562 leukemia): > 25 µM; GI50 (A549 NSCLC): > 25 µM; TGI (A549 NSCLC): > 25 µM; GI50 (MDA-MB-231 breast): > 25 µM; TGI (MDA-MB-231 breast): > 25 µM; GI50 (KM12 colon): > 25 µM; TGI (KM12 colon): > 25 µM; GI50 (LOX IMVI melanoma): > 25 µM; TGI (LOX IMVI melanoma): > 25 µM; GI50 (SNB-19 CNS): > 25 µM; TGI (SNB-19 CNS): > 25 µM; GI50 (U251 CNS): > 25 µM; TGI (U251 CNS): > 25 µM; GI50 (NCI-H460 lung): > 25 µM; TGI (NCI-H460 lung): > 25 µM; GI50 (CCRF-CEM leukemia): > 25 µM; TGI (CCRF-CEM leukemia): > 25 µM; GI50 (NCI-H23 lung): > 25 µM; TGI (NCI-H23 lung): > 25 µM; GI50 (BT-549 breast): > 25 µM; TGI (BT-549 breast): > 25 µM; GI50 (OVCAR-8 ovarian): > 25 µM; TGI (OVCAR-8 ovarian): > 25 µM; GI50 (NCI-H226 lung): > 25 µM; TGI (NCI-H226 lung): > 25 µM; GI50 (UACC-62 melanoma): > 25 µM; TGI (UACC-62 melanoma): > 25 µM; GI50 (SF-539 CNS): > 25 µM; TGI (SF-539 CNS): > 25 µM; GI50 (PC-3 prostate): > 25 µM; TGI (PC-3 prostate): > 25 µM; GI50 (OVCAR-4 ovarian): > 25 µM; TGI (OVCAR-4 ovarian): > 25 µM; GI50 (MDA-MB-435): > 25 µM; TGI (MDA-MB-435): > 25 µM; GI50 (DU-145 prostate): > 25 µM; TGI (DU-145 prostate): > 25 µM; GI50 (SK-MEL-5 melanoma): > 25 µM; TGI (SK-MEL-5 melanoma): > 25 µM; GI50 (HOP-92 NSCLC): 4.91 µM; TGI (HOP-92 NSCLC): > 25 µM; GI50 (SK-OV-3 ovarian): > 25 µM; TGI (SK-OV-3 ovarian): > 25 µM; GI50 (M14 melanoma): > 25 µM; TGI (M14 melanoma): > 25 µM; GI50 (IGROV1 ovarian): > 25 µM; TGI (IGROV1 ovarian): > 25 µM; GI50 (HCT-116 colon): > 25 µM; TGI (HCT-116 colon): > 25 µM; GI50 (ACHN renal): > 25 µM; TGI (ACHN renal): > 25 µM; GI50 (MCF7 breast): > 25 µM; TGI (MCF7 breast): > 25 µM; GI50 (NCI/ADR-RES ovarian): > 25 µM; TGI (NCI/ADR-RES ovarian): > 25 µM; GI50 (SN12C renal): > 25 µM; TGI (SN12C renal): > 25 µM; GI50 (OVCAR-5 ovarian): > 25 µM; TGI (OVCAR-5 ovarian): > 25 µM; GI50 (HS 578T breast): > 25 µM; TGI (HS 578T breast): > 25 µM; GI50 (HCT-15 colon): > 25 µM; TGI (HCT-15 colon): > 25 µM; GI50 (CAKI-1 renal): > 25 µM; TGI (CAKI-1 renal): > 25 µM; GI50 (TK-10 renal): > 25 µM; TGI (TK-10 renal): > 25 µM; GI50 (RXF 393 renal): > 18.4 µM; TGI (RXF 393 renal): > 25 µM; GI50 (HCC-2998 colon): > 25 µM; TGI (HCC-2998 colon): > 25 µM; GI50 (SK-MEL-2 melanoma): > 25 µM; TGI (SK-MEL-2 melanoma): > 25 µM; GI50 (UO-31 renal): > 20.4 µM; TGI (UO-31 renal): > 25 µM; GI50 (T-47D breast): > 25 µM; TGI (T-47D breast): > 25 µM; GI50 (SNB-75 CNS): > 8.48 µM; TGI (SNB-75 CNS): > 25 µM; GI50 (SF-295 CNS): > 25 µM; TGI (SF-295 CNS): > 25 µM; GI50 (SW-620 colon): > 25 µM; TGI (SW-620 colon): > 25 µM; GI50 (MOLT-4 leukemia): > 25 µM; TGI (MOLT-4 leukemia): > 25 µM; GI50 (NCI-H522 lung): > 25 µM; TGI (NCI-H522 lung): > 25 µM; GI50 (RPMI-8226 leukemia): > 25 µM; TGI (RPMI-8226 leukemia): > 25 µM; GI50 (786-0 renal): > 25 µM; TGI (786-0 renal): > 25 µM; GI50 (SK-MEL-28 melanoma): > 25 µM; TGI (SK-MEL-28 melanoma): > 25 µM; GI50 (COLO 205 colon): > 25 µM; TGI (COLO 205 colon): > 25 µM; GI50 (HL-60(TB) leukemia): > 25 µM; TGI (HL-60(TB) leukemia): > 25 µM
